PMC7265341, “Quantifying CDK inhibitor selectivity in live cells” (Nature Communications, 2020)
Like-named read-outs stand apart in the source and are kept apart here.

Experiments:
CDK19/Cyclin C = CDK19/Cyclin C (Homo sapiens, UniProt Q9BWU1); experiment: NanoBRET live-cell target engagement, NanoLuc-CDK19/Cyclin C in HEK-293
CDK15/Cyclin Y = CDK15/Cyclin Y (Homo sapiens, UniProt Q96Q40); experiment: NanoBRET live-cell target engagement, NanoLuc-CDK15/Cyclin Y in HEK-293; assay type: binding; conditions: CDK15/Y; for IC50: read-out: IC50
CDK4/Cyclin D1 = CDK4/Cyclin D1 (Homo sapiens, UniProt P11802); experiment: NanoBRET live-cell target engagement, NanoLuc-CDK4/Cyclin D1 in HEK-293; assay type: binding; conditions: CDK4/D1; for IC50: read-out: IC50
CDK11B/Cyclin L2 = CDK11B/Cyclin L2 (Homo sapiens, UniProt P21127); experiment: NanoBRET live-cell target engagement, CDK11B-NanoLuc/Cyclin L2 in HEK-293; assay type: binding; conditions: CDK11b/L2
CDK17/Cyclin Y = CDK17/Cyclin Y (Homo sapiens, UniProt Q00537); experiment: NanoBRET live-cell target engagement, CDK17-NanoLuc/Cyclin Y in HEK-293; assay type: binding; conditions: CDK17/Y; for IC50: read-out: IC50
CDK8/Cyclin C = CDK8/Cyclin C (Homo sapiens, UniProt P49336); experiment: NanoBRET live-cell target engagement, NanoLuc-CDK8/Cyclin C in HEK-293; assay type: binding; conditions: CDK8/C
CDK12/Cyclin K = CDK12/Cyclin K (Homo sapiens, UniProt Q9NYV4); experiment: NanoBRET live-cell target engagement, CDK12-NanoLuc/Cyclin K in HEK-293; assay type: binding; conditions: CDK12/K
CDK18/Cyclin Y = CDK18/Cyclin Y (Homo sapiens, UniProt Q07002); experiment: NanoBRET live-cell target engagement, CDK18-NanoLuc/Cyclin Y in HEK-293; assay type: binding; conditions: CDK18/Y
CDK5/CDK5R1 = CDK5/CDK5R1 (Homo sapiens, UniProt Q00535); experiment: NanoBRET live-cell target engagement, CDK5-NanoLuc/CDK5R1 in HEK-293; assay type: binding; conditions: CDK5/CDK5R1
CDK14/Cyclin Y = CDK14/Cyclin Y (Homo sapiens, UniProt O94921); experiment: NanoBRET live-cell target engagement, CDK14-NanoLuc/Cyclin Y in HEK-293; assay type: binding; conditions: CDK14/Y; for IC50: read-out: IC50
CDK6/Cyclin D1 = CDK6/Cyclin D1 (Homo sapiens, UniProt Q00534); experiment: NanoBRET live-cell target engagement, NanoLuc-CDK6/Cyclin D1 in HEK-293; assay type: binding; conditions: CDK6/D1; for IC50: read-out: IC50
CDK16/Cyclin Y = CDK16/Cyclin Y (Homo sapiens, UniProt Q00536); experiment: NanoBRET live-cell target engagement, CDK16-NanoLuc/Cyclin Y in HEK-293; assay type: binding; conditions: CDK16/Y; for IC50: read-out: IC50
CDK20/Cyclin H = CDK20/Cyclin H (Homo sapiens, UniProt Q8IZL9); experiment: NanoBRET live-cell target engagement, NanoLuc-CDK20/Cyclin H in HEK-293; assay type: binding; conditions: CDK20/H
CDK3/Cyclin E1 = CDK3/Cyclin E1 (Homo sapiens, UniProt Q00526); experiment: NanoBRET live-cell target engagement, CDK3-NanoLuc/Cyclin E1 in HEK-293; assay type: binding; conditions: CDK3/E1
CDK10/Cyclin L2 = CDK10/Cyclin L2 (Homo sapiens, UniProt Q15131); experiment: NanoBRET live-cell target engagement, CDK10-NanoLuc/Cyclin L2 in HEK-293; conditions: CDK10/L2
CDK11A/Cyclin L2 = biological target: T1, CDK11A/Cyclin L2 (Homo sapiens, UniProt Q9UQ88); experiment: NanoBRET live-cell target engagement, CDK11A-NanoLuc/Cyclin L2 in HEK-293; assay type: binding; conditions: CDK11a/L2
T1 sequence (Q9UQ88 1-783): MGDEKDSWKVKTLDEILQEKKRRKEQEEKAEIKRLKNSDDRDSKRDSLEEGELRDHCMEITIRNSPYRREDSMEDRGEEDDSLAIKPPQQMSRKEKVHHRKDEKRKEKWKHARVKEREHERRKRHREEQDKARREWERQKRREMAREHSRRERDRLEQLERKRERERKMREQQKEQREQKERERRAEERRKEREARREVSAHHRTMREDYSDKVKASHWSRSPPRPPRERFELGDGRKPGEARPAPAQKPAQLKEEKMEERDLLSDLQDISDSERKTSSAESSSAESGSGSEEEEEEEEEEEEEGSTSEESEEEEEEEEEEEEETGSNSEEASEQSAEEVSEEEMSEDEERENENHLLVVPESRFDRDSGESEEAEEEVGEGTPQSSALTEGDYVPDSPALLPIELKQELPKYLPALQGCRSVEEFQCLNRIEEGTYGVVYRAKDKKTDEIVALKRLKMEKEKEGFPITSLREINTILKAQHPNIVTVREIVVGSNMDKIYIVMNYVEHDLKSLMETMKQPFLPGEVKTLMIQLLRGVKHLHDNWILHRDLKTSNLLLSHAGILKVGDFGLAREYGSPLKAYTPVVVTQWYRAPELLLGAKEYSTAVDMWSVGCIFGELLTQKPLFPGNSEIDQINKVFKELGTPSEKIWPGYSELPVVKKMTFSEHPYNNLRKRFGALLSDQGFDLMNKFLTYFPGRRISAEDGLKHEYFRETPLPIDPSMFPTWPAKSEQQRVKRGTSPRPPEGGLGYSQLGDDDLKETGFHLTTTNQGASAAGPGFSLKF

CDK13/Cyclin K = CDK13/Cyclin K (Homo sapiens, UniProt Q14004); experiment: NanoBRET live-cell target engagement, CDK13-NanoLuc/Cyclin K in HEK-293; assay type: binding; conditions: CDK13/K

Chain of CDK15/Cyclin Y (Q96Q40 whole entry): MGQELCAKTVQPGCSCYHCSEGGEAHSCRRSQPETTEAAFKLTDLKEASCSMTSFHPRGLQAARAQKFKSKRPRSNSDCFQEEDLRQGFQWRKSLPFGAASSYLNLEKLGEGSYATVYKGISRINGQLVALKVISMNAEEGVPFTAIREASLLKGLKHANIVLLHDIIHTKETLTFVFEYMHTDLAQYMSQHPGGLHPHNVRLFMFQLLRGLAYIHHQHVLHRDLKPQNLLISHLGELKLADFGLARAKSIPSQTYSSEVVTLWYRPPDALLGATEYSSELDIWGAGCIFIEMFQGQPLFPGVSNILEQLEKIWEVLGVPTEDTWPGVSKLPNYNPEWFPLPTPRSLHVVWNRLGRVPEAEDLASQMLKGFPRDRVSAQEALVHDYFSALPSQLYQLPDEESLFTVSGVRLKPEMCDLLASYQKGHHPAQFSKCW
Chain of CDK15/Cyclin Y (Q8ND76 whole entry partner): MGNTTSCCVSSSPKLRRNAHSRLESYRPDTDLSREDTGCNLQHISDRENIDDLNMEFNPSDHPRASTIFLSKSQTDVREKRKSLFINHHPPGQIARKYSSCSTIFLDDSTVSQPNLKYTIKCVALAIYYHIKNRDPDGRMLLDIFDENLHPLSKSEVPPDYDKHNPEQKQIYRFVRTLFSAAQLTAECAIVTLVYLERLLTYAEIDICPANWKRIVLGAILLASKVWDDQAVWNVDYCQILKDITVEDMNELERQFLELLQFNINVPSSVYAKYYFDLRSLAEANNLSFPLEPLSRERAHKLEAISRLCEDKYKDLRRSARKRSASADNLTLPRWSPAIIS
Chain of CDK10/Cyclin L2 (Q15131 whole entry): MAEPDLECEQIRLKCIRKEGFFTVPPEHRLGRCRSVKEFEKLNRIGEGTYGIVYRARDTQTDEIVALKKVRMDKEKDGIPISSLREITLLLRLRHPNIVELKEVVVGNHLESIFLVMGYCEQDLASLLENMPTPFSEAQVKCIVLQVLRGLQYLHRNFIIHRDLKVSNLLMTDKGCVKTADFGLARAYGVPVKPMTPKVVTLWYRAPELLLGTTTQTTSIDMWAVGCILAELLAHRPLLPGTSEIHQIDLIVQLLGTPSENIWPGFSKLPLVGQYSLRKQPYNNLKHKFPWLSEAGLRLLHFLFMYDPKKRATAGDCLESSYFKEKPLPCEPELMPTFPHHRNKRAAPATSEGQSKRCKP
Chain of CDK6/Cyclin D1 (Q00534 whole entry): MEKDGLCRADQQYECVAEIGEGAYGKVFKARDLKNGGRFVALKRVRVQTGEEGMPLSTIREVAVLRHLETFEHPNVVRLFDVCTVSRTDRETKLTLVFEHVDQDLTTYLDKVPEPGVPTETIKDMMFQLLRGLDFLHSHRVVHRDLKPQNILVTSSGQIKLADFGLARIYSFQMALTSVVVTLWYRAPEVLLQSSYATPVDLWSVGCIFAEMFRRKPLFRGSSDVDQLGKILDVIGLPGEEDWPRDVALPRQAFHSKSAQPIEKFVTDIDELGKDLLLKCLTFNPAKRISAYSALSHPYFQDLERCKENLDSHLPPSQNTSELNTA
Chain of CDK6/Cyclin D1 (P24385 whole entry partner): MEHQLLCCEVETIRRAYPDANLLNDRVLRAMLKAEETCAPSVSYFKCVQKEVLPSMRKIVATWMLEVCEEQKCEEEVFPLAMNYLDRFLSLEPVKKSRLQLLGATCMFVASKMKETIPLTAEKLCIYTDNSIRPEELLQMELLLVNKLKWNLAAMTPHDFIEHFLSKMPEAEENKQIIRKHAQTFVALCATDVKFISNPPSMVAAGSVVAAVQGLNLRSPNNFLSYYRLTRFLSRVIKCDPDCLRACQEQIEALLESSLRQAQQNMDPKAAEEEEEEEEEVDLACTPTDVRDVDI
Chain of CDK8/Cyclin C (P49336 whole entry): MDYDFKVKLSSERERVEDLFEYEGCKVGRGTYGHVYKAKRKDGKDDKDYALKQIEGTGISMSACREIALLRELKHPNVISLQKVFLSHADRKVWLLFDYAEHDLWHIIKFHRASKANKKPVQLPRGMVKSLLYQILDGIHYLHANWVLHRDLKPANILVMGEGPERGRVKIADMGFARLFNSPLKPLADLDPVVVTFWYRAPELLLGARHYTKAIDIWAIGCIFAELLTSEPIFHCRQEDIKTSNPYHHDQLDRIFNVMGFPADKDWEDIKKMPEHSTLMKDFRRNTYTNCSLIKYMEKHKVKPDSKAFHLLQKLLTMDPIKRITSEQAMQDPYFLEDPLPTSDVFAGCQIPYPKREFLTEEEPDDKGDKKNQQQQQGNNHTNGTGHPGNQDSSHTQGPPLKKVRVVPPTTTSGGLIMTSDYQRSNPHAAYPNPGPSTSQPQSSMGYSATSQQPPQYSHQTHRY
Chain of CDK8/Cyclin C (P24863 whole entry partner): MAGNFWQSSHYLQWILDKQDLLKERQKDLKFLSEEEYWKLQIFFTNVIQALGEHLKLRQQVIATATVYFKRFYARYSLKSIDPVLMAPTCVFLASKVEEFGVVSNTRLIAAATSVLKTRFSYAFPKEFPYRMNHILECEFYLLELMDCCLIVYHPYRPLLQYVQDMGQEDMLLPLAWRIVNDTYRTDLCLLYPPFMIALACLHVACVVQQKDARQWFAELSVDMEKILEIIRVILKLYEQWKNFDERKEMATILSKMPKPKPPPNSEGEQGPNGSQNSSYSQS
Chain of CDK4/Cyclin D1 (P11802 whole entry): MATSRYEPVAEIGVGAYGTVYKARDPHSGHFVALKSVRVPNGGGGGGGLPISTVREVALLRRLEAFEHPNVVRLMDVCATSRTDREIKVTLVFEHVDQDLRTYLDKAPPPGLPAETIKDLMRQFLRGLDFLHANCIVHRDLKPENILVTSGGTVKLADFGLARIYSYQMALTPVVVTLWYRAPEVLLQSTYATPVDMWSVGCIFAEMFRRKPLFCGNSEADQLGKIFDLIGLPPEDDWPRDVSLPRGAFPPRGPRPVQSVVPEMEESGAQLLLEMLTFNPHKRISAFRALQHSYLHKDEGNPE
Chain of CDK4/Cyclin D1 (P24385 whole entry partner): as the sequence (P24385 whole entry partner) above
Chain of CDK14/Cyclin Y (O94921 whole entry): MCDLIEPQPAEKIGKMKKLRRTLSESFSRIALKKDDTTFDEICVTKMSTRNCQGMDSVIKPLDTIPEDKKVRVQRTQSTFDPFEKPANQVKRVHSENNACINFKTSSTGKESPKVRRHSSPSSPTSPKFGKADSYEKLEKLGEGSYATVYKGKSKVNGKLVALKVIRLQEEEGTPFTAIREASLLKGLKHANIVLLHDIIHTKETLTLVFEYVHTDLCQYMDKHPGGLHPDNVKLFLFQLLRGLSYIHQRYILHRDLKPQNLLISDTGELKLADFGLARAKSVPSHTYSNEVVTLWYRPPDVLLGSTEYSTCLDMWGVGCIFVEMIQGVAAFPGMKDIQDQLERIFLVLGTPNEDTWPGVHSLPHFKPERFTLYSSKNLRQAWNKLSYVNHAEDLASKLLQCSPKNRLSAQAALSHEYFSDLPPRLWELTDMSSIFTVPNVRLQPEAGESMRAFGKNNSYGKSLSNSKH
Chain of CDK14/Cyclin Y (Q8ND76 whole entry partner): as the sequence (Q8ND76 whole entry partner) above
Chain of CDK19/Cyclin C (Q9BWU1 whole entry): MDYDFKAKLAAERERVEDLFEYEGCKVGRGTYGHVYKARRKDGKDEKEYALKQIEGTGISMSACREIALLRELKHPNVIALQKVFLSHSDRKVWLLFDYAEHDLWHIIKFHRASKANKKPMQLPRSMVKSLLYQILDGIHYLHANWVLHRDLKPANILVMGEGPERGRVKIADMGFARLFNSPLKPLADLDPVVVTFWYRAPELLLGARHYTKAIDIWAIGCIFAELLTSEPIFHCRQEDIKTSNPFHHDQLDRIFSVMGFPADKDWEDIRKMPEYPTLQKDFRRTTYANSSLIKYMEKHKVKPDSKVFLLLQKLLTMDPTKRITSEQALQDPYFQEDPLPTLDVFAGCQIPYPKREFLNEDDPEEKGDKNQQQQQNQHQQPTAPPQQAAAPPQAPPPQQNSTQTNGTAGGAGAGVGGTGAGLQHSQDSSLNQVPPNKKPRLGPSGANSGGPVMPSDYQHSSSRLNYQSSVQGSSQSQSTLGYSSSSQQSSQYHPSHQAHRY
Chain of CDK19/Cyclin C (P24863 whole entry partner): as the sequence (P24863 whole entry partner) above
Chain of CDK3/Cyclin E1 (Q00526 whole entry): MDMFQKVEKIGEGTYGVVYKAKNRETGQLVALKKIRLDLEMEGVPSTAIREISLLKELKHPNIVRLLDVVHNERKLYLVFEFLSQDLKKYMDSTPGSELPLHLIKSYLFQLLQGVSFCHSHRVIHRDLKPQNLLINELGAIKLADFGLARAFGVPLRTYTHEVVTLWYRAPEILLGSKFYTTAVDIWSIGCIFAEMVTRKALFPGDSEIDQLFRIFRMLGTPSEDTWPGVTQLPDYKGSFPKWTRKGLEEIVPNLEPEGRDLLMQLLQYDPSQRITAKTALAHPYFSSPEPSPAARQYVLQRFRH
Chain of CDK3/Cyclin E1 (P24864 whole entry partner): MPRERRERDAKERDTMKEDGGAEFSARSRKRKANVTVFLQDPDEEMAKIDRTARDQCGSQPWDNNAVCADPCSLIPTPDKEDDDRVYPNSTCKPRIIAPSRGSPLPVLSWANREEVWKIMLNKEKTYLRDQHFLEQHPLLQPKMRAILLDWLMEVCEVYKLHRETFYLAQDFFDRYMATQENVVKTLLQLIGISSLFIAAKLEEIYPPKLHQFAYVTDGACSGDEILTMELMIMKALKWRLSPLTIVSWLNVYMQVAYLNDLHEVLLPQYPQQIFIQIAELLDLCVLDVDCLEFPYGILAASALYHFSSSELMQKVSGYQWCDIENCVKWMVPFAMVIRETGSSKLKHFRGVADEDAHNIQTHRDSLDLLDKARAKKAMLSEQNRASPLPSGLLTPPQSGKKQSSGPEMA

For `CNc1nc(C)c(-c2nc(Nc3cccc(S(N)(=O)=O)c3)ncc2F)s1` [CDKI-73], the “Inhibition at 10µM (%)” value (CDK19/Cyclin C; CDK19/C, average) was 79.0%, the IC50 (CDK19/Cyclin C; CDK19/C, experiment 1) was 507 nM and the “Inhibition at 10µM (%)” value (CDK19/Cyclin C; CDK19/C, experiment 1) was 76.8%. The IC50 (CDK19/Cyclin C; CDK19/C, experiment 2) was 120 nM, the “Inhibition at 10µM (%)” value (CDK19/Cyclin C; CDK19/C, experiment 2) was 81.3% and the IC50 (CDK19/Cyclin C; CDK19/Y (so in the source), average (± SEM where n=3)) was 310 nM. The “Inhibition at 10µM (%)” value (CDK15/Cyclin Y; average) was 92.4%, the IC50 (CDK15/Cyclin Y; average (± SEM where n=3)) was 80 nM and the “Inhibition at 10µM (%)” value (CDK15/Cyclin Y; experiment 1) was 92.6%. The IC50 (CDK15/Cyclin Y; experiment 1) was 107 nM, the “Inhibition at 10µM (%)” value (CDK15/Cyclin Y; experiment 2) was 92.2% and the IC50 (CDK15/Cyclin Y; experiment 2) was 54 nM. The “Inhibition at 10µM (%)” value (CDK4/Cyclin D1; average) was 93.8%, the IC50 (CDK4/Cyclin D1; average (± SEM where n=3)) was 12 nM and the “Inhibition at 10µM (%)” value (CDK4/Cyclin D1; experiment 1) was 99.0%. For the same molecule, the IC50 (CDK4/Cyclin D1; experiment 1) was 13 nM, the “Inhibition at 10µM (%)” value (CDK4/Cyclin D1; experiment 2) was 88.5% and the IC50 (CDK4/Cyclin D1; experiment 2) was 11 nM. The “Inhibition at 10µM (%)” value (CDK11B/Cyclin L2; average) was 50.2%, the “Inhibition at 10µM (%)” value (CDK11B/Cyclin L2; experiment 1) was 41.6% and the “Inhibition at 10µM (%)” value (CDK11B/Cyclin L2; experiment 2) was 58.7%. For the same molecule, the “Inhibition at 10µM (%)” value (CDK17/Cyclin Y; average) was 92.2%, the IC50 (CDK17/Cyclin Y; average (± SEM where n=3)) was 8.3 nM and the “Inhibition at 10µM (%)” value (CDK17/Cyclin Y; experiment 1) was 92.4%. The IC50 (CDK17/Cyclin Y; experiment 1) was 7.8 nM, the “Inhibition at 10µM (%)” value (CDK17/Cyclin Y; experiment 2) was 92.0% and the IC50 (CDK17/Cyclin Y; experiment 2) was 8.8 nM. The “Inhibition at 10µM (%)” value (CDK8/Cyclin C; average) was 89.5%, the “Inhibition at 10µM (%)” value (CDK8/Cyclin C; experiment 1) was 81.5% and the “Inhibition at 10µM (%)” value (CDK8/Cyclin C; experiment 2) was 97.4%. The “Inhibition at 10µM (%)” value (CDK12/Cyclin K; average) was 42.5%, the “Inhibition at 10µM (%)” value (CDK12/Cyclin K; experiment 1) was 31.7% and the “Inhibition at 10µM (%)” value (CDK12/Cyclin K; experiment 2) was 53.2%. The “Inhibition at 10µM (%)” value (CDK18/Cyclin Y; experiment 1) was 95.5%, the “Inhibition at 10µM (%)” value (CDK18/Cyclin Y; experiment 2) was 102.2% and the “Inhibition at 10µM (%)” value (CDK5/CDK5R1; average) was 90.6%. The “Inhibition at 10µM (%)” value (CDK5/CDK5R1; experiment 1) was 88.4%, the “Inhibition at 10µM (%)” value (CDK5/CDK5R1; experiment 2) was 92.7% and the “Inhibition at 10µM (%)” value (CDK14/Cyclin Y; average) was 92.7%. The IC50 (CDK14/Cyclin Y; average (± SEM where n=3)) was 48 nM, the “Inhibition at 10µM (%)” value (CDK14/Cyclin Y; experiment 1) was 93.7% and the IC50 (CDK14/Cyclin Y; experiment 1) was 59 nM. The “Inhibition at 10µM (%)” value (CDK14/Cyclin Y; experiment 2) was 91.8%, the IC50 (CDK14/Cyclin Y; experiment 2) was 37 nM and the “Inhibition at 10µM (%)” value (CDK6/Cyclin D1; average) was 99.1%. For the same molecule, the IC50 (CDK6/Cyclin D1; average (± SEM where n=3)) was 14 nM, the “Inhibition at 10µM (%)” value (CDK6/Cyclin D1; experiment 1) was 98.8% and the IC50 (CDK6/Cyclin D1; experiment 1) was 22 nM. The “Inhibition at 10µM (%)” value (CDK6/Cyclin D1; experiment 2) was 99.3%, the IC50 (CDK6/Cyclin D1; experiment 2) was 6.6 nM and the IC50 (CDK16/Cyclin Y; average (± SEM where n=3)) was 4.1 nM. For the same molecule, the “Inhibition at 10µM (%)” value (CDK16/Cyclin Y; experiment 1) was 92.7%, the IC50 (CDK16/Cyclin Y; experiment 1) was 3.2 nM and the “Inhibition at 10µM (%)” value (CDK16/Cyclin Y; experiment 2) was 92.0%. For the same molecule, the IC50 (CDK16/Cyclin Y; experiment 2) was 4.9 nM, the “Inhibition at 10µM (%)” value (CDK20/Cyclin H; experiment 1) was 73.0% and the “Inhibition at 10µM (%)” value (CDK20/Cyclin H; experiment 2) was 44.8%. For the same molecule, the “Inhibition at 10µM (%)” value (CDK3/Cyclin E1; average) was 97.0%, the “Inhibition at 10µM (%)” value (CDK3/Cyclin E1; experiment 1) was 94.8% and the “Inhibition at 10µM (%)” value (CDK3/Cyclin E1; experiment 2) was 99.2%. For the same molecule, the “Inhibition at 10µM (%)” value (CDK10/Cyclin L2; average) was 40.1%, the “Inhibition at 10µM (%)” value (CDK10/Cyclin L2; experiment 1) was 36.9% and the “Inhibition at 10µM (%)” value (CDK10/Cyclin L2; experiment 2) was 43.3%. For the same molecule, the “Inhibition at 10µM (%)” value (CDK11A/Cyclin L2; average) was 42.8%, the “Inhibition at 10µM (%)” value (CDK11A/Cyclin L2; experiment 1) was 32.6% and the “Inhibition at 10µM (%)” value (CDK11A/Cyclin L2; experiment 2) was 53.0%. The “Inhibition at 10µM (%)” value (CDK13/Cyclin K; average) was 37.1%, the “Inhibition at 10µM (%)” value (CDK13/Cyclin K; experiment 1) was 35.9% and the “Inhibition at 10µM (%)” value (CDK13/Cyclin K; experiment 2) was 38.4%.
